The values that follow come from the OligoGym collection.

Several values for one entry are separate records, joined by “and”; a condition that tells them apart may be missing. Identical values can stand only once. After the bases stand the sugars from the 5' end (letter, count) and the backbone: PS all phosphorothioate, else s phosphorothioate and o phosphodiester by linkage. Methylation of C is not given here. e = 2'-O-(2-methoxyethyl) (MOE); k = constrained ethyl (cEt); d = 2'-deoxy (DNA)

In the series the target is SOD1. The conditions noted are these: ASO.

Regarding “CCAATTACACCACAAGC (sugars e3 k2 d7 k2 e3, PS)”, the target mRNA inhibition (HepG2, 3 µM) was determined as 29%.

Sequence “CTACAGCTAGCAGGATA (sugars e2 k2 d8 k2 e3, PS)” showed a target mRNA inhibition (HepG2, 0.1875 µM) of 40%; a target mRNA inhibition (HepG2, 0.75 µM) of 79%; a target mRNA inhibition (HepG2, 3 µM) of 89%; a target mRNA inhibition (HepG2, 4 µM) of 87%; a target mRNA inhibition (HepG2, 12 µM) of 94%.

The sequence “CCTCATAATAAGTGCCA (sugars e2 k2 d9 k2 e2, PS)” registered a target mRNA inhibition (HepG2, 5 µM) of 31%.

Sequence “TTTATTCACAGGCTTGA (sugars e2 k2 d9 k2 e2, PS)” came in with a target mRNA inhibition (HepG2, 5 µM) of 55%.

Turning to “ATGTTTATCAGGATACA (sugars e2 k2 d9 k2 e2, PS)”, the target mRNA inhibition amounted to 27% (HepG2, 0.1875 µM); 65% (HepG2, 0.75 µM); 88% (HepG2, 3 µM); 81% (HepG2, 4 µM); 96% (HepG2, 12 µM).

Consider “AGACATTTTAACTGAGT (sugars e2 k2 d8 k2 e3, PS)”, for which the target mRNA inhibition (HepG2, 5 µM) turned out to be 46%.

Consider “ATACATTTCTACAGCTA (sugars e3 k2 d7 k2 e3, PS)”, for which the target mRNA inhibition is, setting by setting: (HepG2, 0.1875 µM) 34%; (HepG2, 0.75 µM) 56%; (HepG2, 3 µM) 57% and 82%; (HepG2, 12 µM) 93%.

“GATACATTTCTACAGC (sugars ekddddddddekekee, linkages s1 o1 s8 o3 s2)”: the target mRNA inhibition is, setting by setting: (A431, 0.12 µM) 0%; (A431, 0.6 µM) 0%; (A431, 3 µM) 0%; (A431, 15 µM) 18%; (HepG2, 0.222 µM) 40%; (HepG2, 0.667 µM) 60%. The sequence further gave a target mRNA inhibition (HepG2, 2 µM) of 80% and a target mRNA inhibition (HepG2, 6 µM) of 93%.

The sequence “TACAGGTACTTTAAAGC (sugars e2 k2 d8 k2 e3, PS)” came in with a target mRNA inhibition (HepG2, 5 µM) of 23%.

With “GGGCCTCAGACTACATC (sugars e2 k2 d8 k2 e3, PS)”, the target mRNA inhibition (HepG2, 4 µM) was 55%.

The sequence “CACCACAAGCCAAACGA (sugars e2 k2 d8 k2 e3, PS)” displayed a target mRNA inhibition (HepG2, 4 µM) of 48%.

As to “CTCAGACTACATCCAAG (sugars e2 k2 d8 k2 e3, PS)”, the target mRNA inhibition (HepG2, 0.1875 µM) was 38%; the target mRNA inhibition (HepG2, 0.75 µM) came out at 65%; the target mRNA inhibition (HepG2, 3 µM) is 87%; the target mRNA inhibition (HepG2, 4 µM) was 85% and 83%; the target mRNA inhibition (HepG2, 12 µM) is 90% and 96%.

Where the note is “HepG2, 4 µM”, “CCAAGGGAATGTTTATT (sugars e2 k2 d8 k2 e3, PS)” had a target mRNA inhibition of 57%.

Under “HepG2, 2 µM”, “CCACACCTTCACTGGTCCAT (sugars e5 d10 e5, PS)” yielded a target mRNA inhibition of 50%.

With “CCTGCACTGGTACAGCC (sugars e3 k2 d7 k2 e3, PS)”, the target mRNA inhibition (HepG2, 3 µM) stood at 17%.

Take “ATAAGTGCCATACAGGG (sugars e2 k2 d8 k2 e3, PS)”: under “HepG2, 5 µM”, the target mRNA inhibition was 36%.

As to “GGCGATCCCAATTACACC (sugars e5 d8 e5, linkages s1 o3 s9 o2 s2)”, the target mRNA inhibition was found to be 3% (A431, 0.062 µM); 1% (A431, 0.185 µM); 29% (A431, 0.556 µM); 0% (A431, 1.667 µM); 27% (A431, 5 µM); 0% (A431, 15 µM). For the same sequence, the target mRNA inhibition was found to be 0% (SH-SY5Y, 0.062 µM); 3% (SH-SY5Y, 0.185 µM); 21% (SH-SY5Y, 0.556 µM); 31% (SH-SY5Y, 1.667 µM); 47% (SH-SY5Y, 5 µM); 66% (SH-SY5Y, 15 µM).

“CACGCCGAGGTCCTGGTTCC (sugars e5 d10 e5, PS)” registered a target mRNA inhibition (HepG2, 4 µM) of 23%.

Sequence “TCCAAGGGAATGTTTAT (sugars e3 k2 d7 k2 e3, PS)” returned a target mRNA inhibition (HepG2, 3 µM) of 32%.

Turning to “GGCGATCCCAATTACACCAC (sugars e6 d9 e5, linkages s1 o4 s10 o2 s2)”, the target mRNA inhibition by setting is: (A431, 0.062 µM) 0%; (A431, 0.185 µM) 0%; (A431, 0.556 µM) 0%; (A431, 1.667 µM) 0%; (A431, 5 µM) 4%; (A431, 15 µM) 0%. The target mRNA inhibition runs as follows: (SH-SY5Y, 0.062 µM) 0%; (SH-SY5Y, 0.185 µM) 3%; (SH-SY5Y, 0.556 µM) 20%; (SH-SY5Y, 1.667 µM) 38%; (SH-SY5Y, 5 µM) 61%; (SH-SY5Y, 15 µM) 84%.

Consider “AAGAAATTCTGACAAGT (sugars e3 k2 d7 k2 e3, PS)”, for which, where the note is “HepG2, 3 µM”, the target mRNA inhibition turned out to be 18%.

Take “GCCGTCGCCCTTCAGCA (sugars e3 k2 d7 k2 e3, PS)”: the target mRNA inhibition (HepG2, 3 µM) was 33%.

With “TTAGTTTGAATTTGGAT (sugars e2 k2 d8 k2 e3, PS)”, under “HepG2, 5 µM”, the target mRNA inhibition came to 31%.

“CCGCGCCTCGCCCACTCTGG (sugars e5 d10 e5, PS)” registered a target mRNA inhibition (HepG2, 4 µM) of 27%.

Consider “ACAGTGTTTAATGTTTA (sugars e3 k2 d7 k2 e3, linkages s1 o2 s9 o2 s2)”, for which the target mRNA inhibition is, setting by setting: (A431, 0.12 µM) 12%; (A431, 0.6 µM) 26%; (A431, 3 µM) 45%; (A431, 15 µM) 47%; (HepG2, 0.222 µM) 51%; (HepG2, 0.667 µM) 70%. For the same sequence, the target mRNA inhibition runs as follows: (HepG2, 2 µM) 80%; (HepG2, 6 µM) 74%.

For “AGGATAACAGATGAGTT (sugars e3 k2 d7 k2 e3, PS)”, for the setting “HepG2, 3 µM”, the target mRNA inhibition came out at 45%.

Sequence “CATACAGGGTTTTTATT (sugars e3 k2 d7 k2 e3, PS)” showed a target mRNA inhibition (HepG2, 3 µM) of 0%.

In the case of “AATAGCCTCATAATAAG (sugars e2 k2 d9 k2 e2, PS)”, the target mRNA inhibition (HepG2, 5 µM) turned out to be 25%.

In turn, “GCTTCCCCACACCTTCACTG (sugars e5 d10 e5, PS)” showed a target mRNA inhibition (HepG2, 3 µM) of 50%.

In the case of “GGCGATCCCAATTACACCAC (sugars e5 d10 e5, linkages s1 o3 s11 o3 s1)”, the target mRNA inhibition is 0% (A431, 0.12 µM); 0% (A431, 0.6 µM); 0% (A431, 3 µM); 30% (A431, 15 µM); 24% (HepG2, 0.222 µM); 34% (HepG2, 0.667 µM). In addition, the target mRNA inhibition runs as follows: (HepG2, 2 µM) 79%; (HepG2, 6 µM) 55%.

Regarding “CAAGTTTAATACCCATC (sugars e3 k2 d7 k2 e3, PS)”, the target mRNA inhibition (HepG2, 3 µM) is 37%.

“TCATAATAAGTGCCATA (sugars e2 k2 d9 k2 e2, PS)” came in with a target mRNA inhibition (HepG2, 5 µM) of 34%.

“AAGTGATCATAAATCAGTTT (sugars e5 d10 e5, PS)”: the target mRNA inhibition worked out at 86% (HepG2, 4 µM); 8% (HepG2, 5 µM); 96% (HepG2, 12 µM).

Consider “AATGATGCAATGGTCTCCTG (sugars e5 d10 e5, PS)”, for which the target mRNA inhibition (HepG2, 5 µM) was 0%.

In the case of “CCACACCATCTTTGTCAGCA (sugars e5 d10 e5, PS)”, the target mRNA inhibition (HepG2, 5 µM) was 39% and 20%.

Take “GCGACTACTTTATAGGC (sugars e3 k2 d7 k2 e3, PS)”: under “HepG2, 3 µM”, the target mRNA inhibition was 12%.

For “AGATTACAGTGTTTAAT (sugars e2 k2 d8 k2 e3, PS)”, the target mRNA inhibition (HepG2, 0.1875 µM) came out at 16%; the target mRNA inhibition (HepG2, 0.75 µM) was found to be 50%; the target mRNA inhibition (HepG2, 3 µM) turned out to be 62%; the target mRNA inhibition (HepG2, 5 µM) came out at 68%; the target mRNA inhibition (HepG2, 12 µM) stood at 77%.

“GATAACAGATGAGTTAA (sugars e2 k2 d8 k2 e3, PS)”: the target mRNA inhibition (HepG2, 4 µM) is 41%.

Sequence “TGGACCACCAGTGTGCGGCC (sugars e5 d10 e5, PS)” gave a target mRNA inhibition (HepG2, 5 µM) of 28%.

For “TTGGGCGATCCCAATTA (sugars e2 k2 d8 k2 e3, PS)”, where the note is “HepG2, 4 µM”, the target mRNA inhibition is 14%.

As to “TTCTTTTAATAGCCTCATAA (sugars e5 d10 e5, PS)”, the target mRNA inhibition (HepG2, 5 µM) was found to be 5%.

“TCTCACTACAGGTACTT (sugars e2 k2 d8 k2 e3, PS)”: the target mRNA inhibition (HepG2, 5 µM) came out at 42%.

For the setting “HepG2, 3 µM”, “CAGTGTTTAATGTTTAT (sugars e3 k2 d7 k2 e3, PS)” yielded a target mRNA inhibition of 54%.

Under “HepG2, 5 µM”, “ACTCTGAAAAAGTCACACAA (sugars e5 d10 e5, PS)” showed a target mRNA inhibition of 21%.

As for “TAATACCCATCTGTGAT (sugars e2 k2 d8 k2 e3, PS)”, the target mRNA inhibition (HepG2, 5 µM) was 25%.

“AAGTCACACAATTACAC (sugars e2 k2 d8 k2 e3, PS)” gave a target mRNA inhibition (HepG2, 5 µM) of 41%.

On to “GTCATCTGCTTTTTCAT (sugars e3 k2 d7 k2 e3, PS)”, for which the target mRNA inhibition (HepG2, 3 µM) worked out at 74%.

For “TTACACCACAAGCCAAACGA (sugars e5 d10 e5, PS)”, the target mRNA inhibition (HepG2, 5 µM) came to 24%.

Sequence “ATCAGTTTCTCACTACA (sugars e2 k2 d8 k2 e3, PS)” came in with a target mRNA inhibition (HepG2, 5 µM) of 31%.

“AGACACATCGGCCACAC (sugars e3 k2 d7 k2 e3, PS)” came in with a target mRNA inhibition (HepG2, 3 µM) of 21%.

For “GCACTGGTACAGCCTGCTGT (sugars e5 d10 e5, PS)”, the target mRNA inhibition (HepG2, 5 µM) is 31% and 24%.

Regarding “CGATCCCAATTACACCA (sugars e2 k2 d9 k2 e2, PS)”, under “HepG2, 4 µM”, the target mRNA inhibition is 59%.

In the case of “GACGCAAACCAGCACCCCGT (sugars e5 d10 e5, PS)”, under “HepG2, 4 µM”, the target mRNA inhibition came out at 45%.

With “ATAATAAGTGCCATACAGGG (sugars e5 d10 e5, PS)”, the target mRNA inhibition (HepG2, 5 µM) is 18%.

Take “TCACTGGTCCATTACTT (sugars e3 k2 d7 k2 e3, PS)”: for the setting “HepG2, 3 µM”, the target mRNA inhibition is 15%.

In turn, “TCACACAATTACACTTTTAA (sugars e5 d10 e5, PS)” returned a target mRNA inhibition (HepG2, 5 µM) of 15%.

On to “CTGACAAGTTTAATACC (sugars e2 k2 d8 k2 e3, PS)”, for which the target mRNA inhibition (HepG2, 5 µM) was 30%.

Regarding “TAGCCTCATAATAAGTG (sugars e2 k2 d9 k2 e2, PS)”, the target mRNA inhibition (HepG2, 5 µM) was determined as 27%.

Under “HepG2, 3 µM”, “AATTCTGACAAGTTTAA (sugars e3 k2 d7 k2 e3, PS)” had a target mRNA inhibition of 15%.
